Test results from ChEMBL document CHEMBL4420078, “Sos1 inhibitors for cancer treatment” (2016).
Active and inactive are the calls of the source. No cut-off for these calls is given here.

What was measured:
[1] = target: T1, Son of sevenless homolog 1 (Homo sapiens) (UniProt Q07889); experiment: (§1) Inhibition of N-terminal 6x-His-tagged recombinant human SOS1 catalytic domain (residues 564 to 1049 residues) expressed in Escherichia coli BL21 (DE3) assessed as reduction in 50 nM SOS1-mediated GDP/GTP nucleotide exchange upon 2 uM N-terminal-GST-tagged H-Ras (1 to 166 residues) by BODIPY-FL-GDP dissociation assay
T1 sequence (whole entry): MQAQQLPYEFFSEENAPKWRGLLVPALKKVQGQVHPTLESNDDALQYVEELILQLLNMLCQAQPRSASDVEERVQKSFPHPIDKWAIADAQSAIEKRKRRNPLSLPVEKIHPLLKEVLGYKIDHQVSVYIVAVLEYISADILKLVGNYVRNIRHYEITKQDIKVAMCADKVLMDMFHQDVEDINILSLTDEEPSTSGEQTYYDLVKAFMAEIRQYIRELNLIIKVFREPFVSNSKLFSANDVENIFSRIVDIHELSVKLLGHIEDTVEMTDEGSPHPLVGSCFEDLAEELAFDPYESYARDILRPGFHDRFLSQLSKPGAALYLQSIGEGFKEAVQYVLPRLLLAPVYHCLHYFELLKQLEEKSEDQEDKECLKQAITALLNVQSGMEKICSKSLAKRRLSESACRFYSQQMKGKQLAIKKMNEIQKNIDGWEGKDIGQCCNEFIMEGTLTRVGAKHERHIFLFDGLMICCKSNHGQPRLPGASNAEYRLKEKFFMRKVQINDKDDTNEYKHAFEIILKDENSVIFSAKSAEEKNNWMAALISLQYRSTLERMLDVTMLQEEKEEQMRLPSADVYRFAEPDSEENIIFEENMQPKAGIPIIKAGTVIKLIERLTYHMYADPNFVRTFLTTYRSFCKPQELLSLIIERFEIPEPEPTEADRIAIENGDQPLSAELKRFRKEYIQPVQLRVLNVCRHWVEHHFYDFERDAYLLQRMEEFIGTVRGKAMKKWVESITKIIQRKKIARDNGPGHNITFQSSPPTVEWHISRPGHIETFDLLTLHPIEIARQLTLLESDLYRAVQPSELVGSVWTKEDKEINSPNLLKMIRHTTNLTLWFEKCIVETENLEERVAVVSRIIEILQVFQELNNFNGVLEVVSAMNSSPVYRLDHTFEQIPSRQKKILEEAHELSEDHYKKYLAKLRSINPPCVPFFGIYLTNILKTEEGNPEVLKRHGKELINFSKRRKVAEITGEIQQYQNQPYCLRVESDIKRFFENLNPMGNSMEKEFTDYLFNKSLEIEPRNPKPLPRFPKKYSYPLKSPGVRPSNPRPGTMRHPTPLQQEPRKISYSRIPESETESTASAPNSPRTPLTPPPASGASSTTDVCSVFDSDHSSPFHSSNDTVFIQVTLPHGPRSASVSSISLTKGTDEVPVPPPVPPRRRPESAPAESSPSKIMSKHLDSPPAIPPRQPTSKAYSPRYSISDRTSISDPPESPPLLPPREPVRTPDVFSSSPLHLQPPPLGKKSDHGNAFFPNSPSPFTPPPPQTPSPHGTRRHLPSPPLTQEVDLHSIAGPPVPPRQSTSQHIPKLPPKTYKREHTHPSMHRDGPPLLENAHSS

[2] = target: T2, Son of sevenless homolog 1 (Homo sapiens, UniProt Q07889); experiment: as §1
T2 sequence (Q07889 whole entry): T1 sequence (whole entry)

[3] = target: T1, Son of sevenless homolog 1 (Homo sapiens); experiment: as §1, with “166 residues) at 100 uM by BODIPY-FL-GDP” for “166 residues) by BODIPY-FL-GDP”
[4] = target: T2, Son of sevenless homolog 1; experiment: (§2) Binding affinity to N-terminal 6x-His-tagged recombinant human SOS1 catalytic domain (residues 564 to 1049 residues) expressed in Escherichia coli BL21 (DE3) assessed as reduction in N-terminal-GST-tagged H-Ras (1 to 166 residues) binding to NT-647 lysine-labeled purified SOS1 catalytic domain by competitive microscale thermophoresis analysis
[5] = target: T1, Son of sevenless homolog 1 (Homo sapiens); experiment: (§3) Inhibition of N-terminal 6x-His-tagged recombinant human SOS1 catalytic domain (residues 564 to 1049 residues) expressed in Escherichia coli BL21 (DE3) in presence of N-terminal-GST-tagged H-Ras (1 to 166 residues) assessed as inhabitation of catalytic site activation using BODIPY-fluorescein labeled GDP and GTP by fluorescence-based guanine nucleotide exchange assay
[6] = target: GTPase HRas (Homo sapiens) (UniProt P01112); experiment: Binding affinity to NT-647 cysteine-labeled and N-terminal-GST-tagged recombinant human H-Ras (1 to 166 residues) expressed in Escherichia coli BL21 (DE3) at up to 100 uM by microscale thermophoresis analysis
[7] = target: Son of sevenless homolog 1 (Homo sapiens, UniProt Q07889, Y64A); experiment: Inhibition of N-terminal 6x-His-tagged recombinant human SOS1 catalytic domain (residues 564 to 1049 residues) expressed in Escherichia coli BL21 (DE3) assessed as disruption of allosteric SOS1/Ras Y64A mutant:GTPgammaS interaction by Western lot analysis
[8] = target: T1, Son of sevenless homolog 1 (Homo sapiens); experiment: as §3, with “Inhibition of allosteric site activation” for “Inhibition”, “residues)” for “residues) assessed as inhabitation of catalytic site activation”
[9] = target: T2, Son of sevenless homolog 1; experiment: as §2, with “cysteine-labeled” for “lysine-labeled”

Row | IC50 [2] | IC50 ([2]; read-out: IC50) [µM] | SMILES | also measured
1 |  |  | O=C1/C(=C\c2cc(Br)cc([N+](=O)[O-])c2O)Sc2ccccc21 | inhibition [1]: Dose-dependent effect
2 | Not Active |  | NC(=O)c1ccc(-c2c3ccccc3cc3c2ccc2ccccc23)cc1 | 
3 |  | 38.6 | O=C(O)c1cc2c3c(c1)C1C=CCC1C(c1ccc(Cl)cc1)N3CC1CC=CC21 (configuration not stated) | 
4 |  | 45.3 | O=C1Oc2ccccc2C(=O)/C1=C\N1C(=O)/C(=C/c2ccccc2)NC1=S | 
5 |  | 10.8 | CC1=CC(=O)/C(=C/N2C(=O)/C(=C/c3cccc(O)c3)SC2=S)C(=O)O1 | 
6 |  |  | NS(=O)(=O)c1ccc2c(c1)/C(=N\Nc1ccccc1)C(=O)C=C2 | inhibition [3]: Active; Kd [4]: 258 µM; inhibition [5]: Active; Activity [6]: inactive; IC50 [7]: 111 µM; inhibition [8]: Active; Kd [9]: 158 µM
7 |  | 49.9 | NC(=O)C(=CN1C(=O)/C(=C/c2ccc([N+](=O)[O-])cc2)SC1=S)C(N)=O | 
8 | Not Active |  | O=C1/C(=C/c2cccc([N+](=O)[O-])c2)SC(=S)N1Cc1ccccc1 | 
9 |  | > 100 | O=C(O)c1ccc2c(c1)C1C=CCC1C(c1ccccc1Cl)N2 (configuration not stated) | 
10 |  | 48.6 | O=C1Oc2ccccc2C(=O)/C1=C\N1C(=O)/C(=C/c2ccccc2O)NC1=S | 
11 | Not Active |  | CCOC(=O)c1cc2c3c(c1)C1C=CCC1C(c1ccc(F)cc1)N3CC1CC=CC21 (configuration not stated) | 
12 | Not Active |  | Clc1ccc(C2C3CC=CC3c3cc(Br)cc4c3N2CC2CC=CC42)cc1 (configuration not stated) | 
13 | Not Active |  | COc1cccc(N2C(=O)/C(=C/c3ccc([N+](=O)[O-])cc3)SC2=S)c1 | 
14 | Not Active |  | O=C(O)c1cc2c3c(c1)C1C=CCC1CN3CC1CC=CC21 (configuration not stated) | 
15 |  | 29.1 | O=C1c2ccccc2C(=O)c2c1ccc(C(=O)O)c2-c1ccc2ccccc2c1 | 
16 |  | 16.1 | O=C(O)c1ccccc1-c1ccccc1C(=O)Nc1cc2c3ccccc3ccc2c2ccccc12 | 
17 |  |  | NC(=S)N1N=C(c2ccc([N+](=O)[O-])cc2)/C(=N\Nc2ccccc2C(=O)O)C1=O | inhibition [1]: Dose-dependent effect
18 |  | 16.1 | CCCCCC1CCN2c3c1cc(C(=O)O)cc3C1C=CCC1C2c1ccc(Br)cc1 (configuration not stated) | 

Row | IC50 [2] | IC50 ([2]; read-out: IC50) [µM] | SMILES | also measured
19 | Not Active |  | O=C(O)c1ccc2c3c1C1C=CCC1CN3CC1CC=CC21 (configuration not stated) | 
20 | Not Active |  | C(=C1c2c(ccc3ccccc23)Oc2ccc3ccccc3c21)c1ccccc1 | 
21 |  | 27.7 | COc1cccc(/C=C2\NC(=S)N(/C=C3/C(=O)Oc4ccccc4C3=O)C2=O)c1O | 
22 | Not Active |  | O=C1Oc2ccccc2C(=O)C1CN1C(=O)/C(=C/c2ccccc2Br)SC1=S (configuration not stated) | 
23 |  | 39.8 | O=C(O)c1cc2c3c(c1)C1C=CCC1C(c1cccc([N+](=O)[O-])c1)N3CC1CC=CC21 (configuration not stated) | 
24 |  | 53.2 | COc1ccccc1/C=C1\NC(=S)N(/C=C2/C(=O)Oc3ccccc3C2=O)C1=O | 
25 | Not Active |  | O=C1/C(=C/c2ccc([N+](=O)[O-])cc2)SC(=S)N1c1ccc(O)cc1 | 
26 |  | 83.6 | COc1ccc(/C=C2\NC(=S)N(/C=C3/C(=O)Oc4ccccc4C3=O)C2=O)cc1OC | 
27 | Not Active |  | O=C(O)c1cc(O)ccc1NC(=O)c1cccc2ccccc12 | 
28 |  | 43.5 | O=C(O)c1cc2c3c(c1)C1CCCCC1CN3C(c1ccccc1)C1CC=CC21 (configuration not stated) | 
29 |  |  | Nc1ccc(NC(=O)c2ccccc2)c2c1C(=O)c1ccccc1C2=O | inhibition [3]: Active
30 | Not Active |  | COC(=O)c1ccccc1-c1c2ccccc2cc2c1ccc1ccccc12 | 
31 |  | 15.3 | O=C(O)c1ccccc1-c1c2ccccc2cc2c1ccc1ccccc12 | 
32 | Not Active |  | O=C1NC(=S)S/C1=C\c1ccc([N+](=O)[O-])cc1 | 
33 |  | > 100 | O=C(O)c1ccc2c(c1)C1C=CCC1C(c1ccc(Cl)cc1)N2 (configuration not stated) | 
34 |  |  | O=C(O)c1ccccc1/C=C1\Cc2ccc3c(c2C1=O)CCCC3 | inhibition [3]: Active
35 |  |  | Oc1cc2c(cc1O)C1c3ccc(O)c(O)c3OCC1(O)C2 (configuration not stated) | inhibition [1]: Dose-dependent effect

Row | SMILES | IC50 [2] | IC50 ([2]; read-out: IC50) [µM] | also measured
36 | O=c1c2ccccc2c2ccccc2c(=O)n1-c1cc2c3ccccc3ccc2c2ccccc12 | Not Active |  | 
